With `O=C(O)CCc1oc(-n2ncc3ccccc32)nc1-c1ccc(Cl)cc1`, the melting point fell in the range of 204 to 205 °C.

For `COc1ccc(CC(=O)NC(NC(=NC#N)Nc2c(F)cc(F)cc2F)C(C)(C)C)cc1OC` (stereo not given), the melting point fell in the range of 170 to 171 °C. The value for `COc1cc(OCc2cccc([N+](=O)[O-])c2)ccc1C(C)=O` was 111 to 114 °C; that for `CC(C(=O)NCC(=O)OCc1ccccc1)N1CCN(CC(=O)OC(C)(C)C)CCN(CC(=O)OC(C)(C)C)CCN(CC(=O)OC(C)(C)C)CC1` (stereo not given) was 116 to 117 °C; that for `Cc1ccc(S(=O)(=O)N2[C@@H](Cc3nc(C)no3)CC[C@H]2c2ccc(F)cc2)cc1` (racemic) was 103 °C. `O=C(Nc1ccc2ccc(Oc3ccccc3)nc2n1)C1=CCC=CC1` came in with a melting point of 95 °C.

The compound `CCCCC(Cc1ccc(OCCNC(=O)c2ccc(-c3cccc(C(=O)O)c3)cc2)cc1)C(=O)O` (stereo not given) displayed a melting point of 142 to 143 °C. With `CCCCn1nc(C(C)C)c(C(=O)O)c1Cc1ccc(-c2ccccc2-c2nnn[nH]2)cc1` the figure was 103 to 108 °C; with `CCCCCCCCn1c(C)c(C(=O)c2ccccc2C(=O)O)c2ccccc21`, 121 to 123 °C. With `COC(=O)C1=C(C)NC(C)=C(C(=O)OCCN2CCN(Cc3ccccc3)CC2)C1c1cccc([N+](=O)[O-])c1` (stereo not given) the figure was 106 to 108 °C; with `CCOn1c(C)nc(N2CCc3ccccc3CC2)c(C#N)c1=O`, 149 to 152 °C. With `Cc1cc(CNC(=O)c2cc(-c3ccc(-c4ccccc4)cc3)nn2C)ccc1OC(C)(C)C(=O)O` the figure was 90 to 95 °C; with `COC(=O)c1c(-c2ccccc2)nc2c(c1N)c1c(n2Cc2ccc(OC)cc2)CCCC1`, 192 to 194 °C; with `CCOC(=O)c1c(C)nc(Cl)c([N+](=O)[O-])c1Cl`, 45 to 46 °C. On to `Nc1nc(NCC(c2ccccc2)c2ccccc2)c2ncn(C3OC(CO)C(O)C3O)c2n1` (stereo not given), for which the melting point was 134 to 137 °C. Turning to `COc1ccccc1N1CCN(CCCNC(=O)c2cccc3c(=O)c(C)c(C4(c5ccccc5)CCCC4)oc23)CC1`, the melting point was 171 to 172 °C. The value for `CCN(CC)CCNC(=O)c1cc(Cl)c(N)cc1OCCS(=O)CC` (stereo not given) was 92 to 94 °C; that for `O=C1c2cc(O)ccc2CN1c1ccc2sccc2c1` was 226 to 228 °C. The value for `Oc1ccc2c(-c3nc4cc(O)ccc4o3)cccc2c1` was 232 to 234 °C; that for `Oc1cccc(OCCCC(O)(O)C(F)(F)F)c1` was 76 to 77 °C; that for `CCCN(CCC)C(=O)n1cnc(S(=O)(=O)CCC)n1` was 79 to 80 °C. With `COc1ccc2cc([C@H](C)C(=O)NNC(=O)CCCO)ccc2c1` the figure was 149 to 151 °C; with `CSC[C@@H](NC(=O)OCc1ccccc1)[C@@H]1COC(C)(C)O1`, 70 to 71 °C; with `CC(C)(C)OC(=O)NCCC[C@H](NC(=O)OC(C)(C)C)C(=O)NCCCC(c1ccc(F)cc1)c1ccc(F)cc1`, 54 to 59 °C.

As to `O=C(Cc1ccccc1)N1CCC2(c3cccc(O)c3)CCCC2C1` (stereo not given), the melting point lay within 135 to 137 °C. The compound `COc1ccc2c(c1Br)CCC1C(=O)NC(=O)C21` (stereo not given) yielded a melting point of 243 to 245 °C. With `O=C(Cc1ccccc1)Nc1ccc(-c2ccc(C(=O)O)c(=O)[nH]2)cc1` the figure was > 280 °C; with `O=C(O)Cc1ccc([N+](=O)[O-])c(C(=O)c2ccc(Cl)cc2)c1`, 182 to 183 °C.

For the compound `O=C1NC(=O)C2(c3ccccc3)CC1C2`, the melting point is 217 to 218 °C. `Nc1snc2nc(-c3ccccc3)sc12`: the melting point lay within 176 to 179 °C. With `Cc1cc2n(C)c3cc(Cl)ncc3c(=O)n2n1` the figure was > 300 °C; with `NC(=O)Cn1c(-c2ccc(Cl)cc2)nc2ncccc21`, 280 to 283 °C; with `CC(C)(C)OC(=O)NC1CCCCCC=CC2CC2(C(=O)NS(=O)(=O)C2CC2)NC(=O)C2CC(OC(=O)c3cnccn3)CN2C1=O` (stereo not given), 150 to 152 °C. The value for `c1ccc(-c2cc(N3CCNCC3)nc(-c3ccccn3)n2)nc1` was 159 to 161 °C; that for `Cc1ccccc1C=CC(=O)c1c(C)n(CCN2CCOCC2)c2ccccc12` was 131 to 135 °C; that for `O=C1c2ccccc2C(O)N1CCCBr` (stereo not given) was 79 °C. Take `COc1cc(CO)c(-c2ccc(OCCC(C)CCCC(C)C)cc2)cc1CO` (stereo not given): the melting point came to 101 °C. With `CC1C(=O)N(C2CCCC2)C(=S)N1c1ccc(Oc2ccccc2)cc1` (stereo not given) the figure was 99 °C; with `O=S=c1cc(-c2ccc(Cl)cc2)ss1`, 123 to 125 °C; with `CCCCOC(=O)c1cc(=O)c2c3c(cc(Cl)c2o1)-c1ccc(S(=O)(=O)O)cc1C(C)(C)O3`, 241 to 243 °C.

On to `Oc1cccc(-c2n[nH]c3ncnc(Nc4cccc(Cl)c4)c23)c1`, for which the melting point was 118 to 119 °C. With `C=C1CC(COc2ccc3c(C)c(Cl)c(=O)oc3c2)(c2ccccc2)OC1=O` (stereo not given) the figure was 149 to 150 °C; with `COC(=O)C1=C(CCc2ccccc2)NC(CC(=O)N2CCN(CC(=O)N3CCCC3)CC2)=C(C(=O)OC)C1c1c(Cl)cccc1Cl` (stereo not given), 180 to 184 °C. The value for `CCCNC(=O)N1CC(Oc2ccc(C(F)(F)F)cc2)C1` was 119 to 120 °C; that for `CCOC(=O)c1c(N)c(Cl)cc2c1OCO2` was 77 to 78 °C; that for `Cc1cc2nnn(C(=O)N3CCOCC3)c2cc1C` was 191 °C. With `CNC(=O)N1CC(Oc2ccc(C(N)=O)cc2)C1` the figure was 208 to 210 °C; with `CCC(C#N)=C1CCN(c2ccc(N3C[C@H](CNC(C)=S)OC3=O)cc2F)CC1`, 174 to 176 °C; with `COc1cc(C(C)O)c(O)cc1OCCCN1CCC(c2noc3cc(F)ccc23)CC1` (stereo not given), 156 to 158 °C. As for `CCn1cc(C(=O)O)c(=O)c2cc(F)c(N3CC4CCC3CN4)c(F)c21` (stereo not given), the melting point is 255 to 257 °C.

`FC(F)(F)CNc1nc(Cl)nc(Cl)n1`: the melting point was 115 to 118 °C. The value for `CCOC1=CCc2c(OC)ccc(OC)c2C1` was 102 to 103 °C; that for `CCOC(=O)C(=O)Nc1cc([N+](=O)[O-])c2ccccc2c1NC(=O)C(=O)OCC` was 183 to 184 °C; that for `C=Cc1ccc(OC(C)C)c(OCCN2C(=O)c3ccccc3C2=O)c1` was 78 °C. Turning to `Cc1c(C(=O)Nc2ccc(N(CCO)CCO)c(C#N)c2)cnn1-c1ccc(F)cc1`, the melting point fell in the range of 158 to 159 °C. Take `C[C@@H](O)CN1CC(c2cccc(C(F)(F)F)c2)C1`: the melting point is 81 to 82 °C.

For `CC(=O)Oc1c(C)c(C)c2c(c1C)C(=O)CC(O)(COc1ccc([N+](=O)[O-])cc1)O2` (stereo not given), the melting point was 204 to 207 °C.

With `CCOC(=O)C1=C(C)Nc2nc(N3CCOCC3)nc(N3CCOCC3)c2C1c1ccncc1` (stereo not given), the melting point is 209 °C.

Regarding `COc1ccc(-c2cnn3c(-c4cccc(NC(=O)CC(C)C)c4)ccnc23)cc1`, the melting point lay within 225 to 227 °C. The value for `CC(CC#N)C(C#N)(c1ccc(N2CCOCC2)c([N+](=O)[O-])c1)N1CCOCC1` (stereo not given) was 175 to 177 °C. `N#Cc1cccc(-c2cnco2)n1`: the melting point is 148 °C.

The compound `CCOC(=O)C1[C@@H]2[C@@H](O)[C@@H]3O[C@H](c4ccc(C(F)(F)F)cc4)OC[C@H]3O[C@H]12` (stereo not given in full) yielded a melting point of 128 to 131 °C.

The compound `CCC(C(=O)N(CC)CC)n1cc(Cl)c(-c2ccccc2)n1` (stereo not given) registered a melting point of 47 to 49 °C. The value for `O=C(O)CN(CC(=O)O)C(=O)C(=O)c1ccc(OCCCCCCCCCCCCOc2ccccc2)cc1` was 130 to 132 °C; that for `Cc1nc(N)c2ncn(CCOCc3ccncc3)c2c1C` was 195 to 196 °C. With `CC(O)Cn1cnc2c(N)nc3ccccc3c21` (stereo not given), the melting point was in the range of 216 to 221 °C. With `Cc1noc(NS(=O)(=O)c2ncccc2C(=O)Nc2ccccc2)c1C` the figure was 199 to 200 °C. Consider `Cc1ccc(C(N)=S)c(N)c1`, for which the melting point fell in the range of 172 to 174 °C. With `COC(=O)C(O)C(CC1CCCCC1)NC(=O)C(Cc1c[nH]cn1)NC(=O)C(CC(=O)N1CCOCC1)Cc1cccc2ccccc12` (mixture of isomers) the figure was 83 to 87 °C; with `CC1(C)CC(OC(=O)c2ccccc2)CC(C)(C)N1O`, 145 to 149 °C; with `O=C(CCC(F)([N+](=O)[O-])[N+](=O)[O-])NNC(=O)C(F)(F)C(F)(F)F`, 128 to 132 °C. With `N#Cc1ccc(OCCNC(=O)C2Cc3ccccc3N2S(=O)(=O)c2ccc(-c3cccc(C(F)(F)F)c3)cc2)cc1` (stereo not given) the figure was 70 to 80 °C. `O=C1c2ccccc2CN1CCOc1ccc(CO)cc1` returned a melting point of 106 to 107 °C. With `CCCn1c(COCC)nc2c(N)nc3ccc(OCCN)cc3c21` the figure was 157 to 159 °C. With `C=Cc1ccc(C(=O)O)cc1C12CC3CC(CC(C3)C1)C2` the figure was 315 to 317 °C. Consider `COCCc1nc2c(N)nc3ccccc3c2n1CCOCCN(C(N)=O)c1ccccc1`, for which the melting point lay within 171 to 174 °C.

On to `O=CN(O)C1(CS(=O)(=O)c2ccc(Oc3ccc(OC(F)(F)F)cc3)cc2)CCC2(CC1)OCCO2`, for which the melting point lay within 133 to 134 °C. `CC1(C)CC(=O)OC(C(Cl)(Cl)Cl)C1Br` (stereo not given): the melting point was in the range of 98.5 to 99.5 °C. With `CN(C(=O)OC(C)(C)C)c1cc(Oc2ccc(Cc3ccccc3)cc2)ccc1N` the figure was 114 to 115 °C; with `Cc1cc(SC2=C(O)CC(CCc3ccc(O)cc3)(CCc3ccc(O)cc3)OC2=O)c(C(C)(C)C)cc1OS(=O)(=O)N1CCN(C)CC1`, 150 °C.

As to `CCCCCCC(=O)N[C@H](CO)C(=O)OCc1ccccc1`, the melting point is 62 to 66 °C. Compound `O=Cc1c(Cl)cc(OCCO)cc1Cl` displayed a melting point of 83 to 85 °C. The value for `CCCCCCCCCCCCCCCCOc1ccc(-c2nc(CC(=O)O)c(Oc3ccc(Cl)cc3)o2)cc1` was 76 to 77 °C; that for `O=C1NC(=O)C2(CC(O)c3ccccc32)N1` (stereo not given) was 260 to 263 °C; that for `O=C(c1ccccc1)c1ccc(N2CCN(c3ccncc3)CC2)cc1` was 136 to 137 °C.

Usually melting point stands for the temperature of the solid-liquid transition.

The record behind these values is a melting point compilation (Tetko et al.; mined from patent text by program, amines drawn as free bases though some values may be those of a salt).
